Experimental data published in US20240208986A1, “PHENYL AZEPINES AS RIPK1 INHIBITORS AND METHODS OF USE THEREOF” (Merck Sharp & Dohme LLC, priority 2021, published 2024).

Target: RIPK1 (recombinant GST-RIPK1 kinase domain, residues 1-327) (Homo sapiens (Human), UniProt Q13546)
Test: RIPK1-ADP-Glo Enzymatic Assay
Assay type: biochemical
Details: 25 nM GST-RIPK1, 300 μM ATP, 3 μM dephosphorylated-MBP; 30 minutes pre-incubation, 150 minutes reaction; ten-point titration
Protocol: The enzymatic activity of RIPK1 is measured using an assay derived from ADP-Glo kit (™Promega), which provides a luminescent-based ADP detection system. Specifically, the ADP generated by RIPK1 kinase is proportionally detected as luminescent signals in a homogenous fashion. In this context, the assessment of the inhibitory effect of small molecules (EC50) is measured by the effectiveness of the compounds to inhibit the ATP to ADP conversion by RIPK1.
In this assay, the potency (EC50) of each compound was determined from a ten-point (1:3 serial dilution; top compound concentration of 100000 nM) titration curve using the following outlined procedure. To each well of a white ProxiPlus 384 well-plate, 30 nL of compound (1% DMSO in final assay volume of 3 μL) was dispensed, followed by the addition of 2 μL of 1× assay buffer (25 mM Hepes 7.3, 20 mM MgCl2, 50 mM NaCl, 1 mM DTT, 0.005% Tween20, and 0.02% BSA) containing 37.5 nM of GST-RIPK1 (recombinant GST-RIPK1 kinase domain (residues 1-327) enzyme produced from baculovirus-transfected Sf21 cells: MW=62 kDa). Plates were placed in an ambient temperature humidified chamber for a 30 minutes pre-incubation with compound. Subsequently, each reaction was initiated by the addition of 1 μL 1× assay buffer containing 900 μM ATP and 3 μM dephosphorylated-MBP substrate. The final reaction in each well of 3 μL consists of 25 nM of GST-RIPK1, 300 μM ATP, and 3 μM dephosphorylated-MBP. Kinase reactions were allowed to proceed for 150 minutes prior to adding ADP-Glo reagents per Promega's outlined kit protocol. Dose-response curves were generated by plotting percent effect (% product conversion; Y-axis) vs. Log10 compound concentrations (X-axis). EC50 values were calculated using a non-linear regression, four-parameters sigmoidal dose-response model.

RIPK1 (recombinant GST-RIPK1 kinase domain, residues 1-327), sequence (Q13546 1-327): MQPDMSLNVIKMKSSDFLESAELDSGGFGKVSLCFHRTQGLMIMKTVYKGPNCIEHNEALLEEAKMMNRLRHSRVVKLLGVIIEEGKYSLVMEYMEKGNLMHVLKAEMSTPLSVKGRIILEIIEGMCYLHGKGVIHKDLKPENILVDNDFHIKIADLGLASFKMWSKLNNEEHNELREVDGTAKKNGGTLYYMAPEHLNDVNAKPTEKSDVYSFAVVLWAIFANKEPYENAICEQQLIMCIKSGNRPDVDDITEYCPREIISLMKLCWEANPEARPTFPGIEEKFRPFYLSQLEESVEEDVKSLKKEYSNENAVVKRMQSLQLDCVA

Structure (SMILES)	IC50 [µM]
CC1(C(=O)N2C[C@@H]3C[C@H]2c2ccccc2O3)CC1(F)F (mixture of isomers) [Compound 1-14, [(R and S)-2,2-difluoro-1-methylcyclopropyl]-[(2S,5S)-2,3-dihydro-2,5-methano-1,4-benzoxazepin-4(5H)-yl]methanone]	0.313
CC1(C)CCC1C(=O)N1C[C@@H]2C[C@H]1c1ccccc1O2 (mixture of isomers) [Compound 1-27, [(2S,5S)-2,3-dihydro-2,5-methano-1,4-benzoxazepin-4(5H)-yl]-[(R and S)-2,2-dimethylcyclobutyl] methanone]	0.921
C[C@H]1CC[C@@](C)(C(=O)N2C[C@@H]3C[C@H]2c2ccccc2O3)C1(C)C (racemic) [Compound 1-32, [(2S,5S)-2,3-dihydro-2,5-methano-1,4-benzoxazepin-4(5H)-yl][(1R,3S and 1S,3R)-1,2,2,3-tetramethylcyclopentyl] methanone]	0.391
CC1(C(=O)N2C[C@@H]3C[C@H]2c2ccccc2O3)CCOC1 (mixture of isomers) [Compound 1-50, [(2S,5S)-2,3-dihydro-2,5-methano-1,4-benzoxazepin-4(5H)-yl]-[(R and S)-3-methyloxolan-3-yl]methanone]	0.393
CC(C)(C)C(=O)N1C2CCC1c1ccccc1OC2 (single isomer, unassigned) [Compound 3-1, 2,2-dimethyl-1-((3S,6R or 3R,6S)-3,4,5,6-tetrahydro-2H-3,6-epiminobenzo[b]oxocin-11-yl)propan-1-one]	0.281
C[C@@]12C[C@@H](c3ccccc3O1)N(C(=O)C13CCC(CC1)C3)C2 (single isomer, unassigned) [Compound 3-7]	6.58
C[C@@]12C[C@@H](c3ccccc3O1)N(C(=O)C13CCC(F)(CC1)C3)C2 (single isomer, unassigned) [Compound 3-8]	3.98
C[C@@]12C[C@@H](c3ccccc3O1)N(C(=O)C13CCC(C(F)(F)F)(CC1)C3)C2 (single isomer, unassigned) [Compound 3-9]	2.41
O=C(NCc1ccc(Cl)cc1)C(=O)N1CC2C[C@H]1c1ccccc1O2 (stereo in doubt) [Compound 1-56, N-[(4-chlorophenyl)methyl]-2-[(2R,5S)-2,3-dihydro-2,5-methano-1,4-benzoxazepin-4(5H)-yl]-2-oxoacetamide]	0.863
O=C(C1CCCCC1)N1C[C@@H]2C[C@H]1c1ccccc1O2 [Compound 1-8, cyclohexyl((2S,5S)-2,3-dihydro-2,5-methanobenzo[f][1,4]oxaze-pin-4(5H)-yl)methanone]	0.641
O=C(N1C[C@@H]2C[C@H]1c1ccccc1O2)C1(F)CCCCC1 [Compound 1-9, ((2S,5S)-2,3-dihydro-2,5-methanobenzo[f][1,4]oxaze-pin-4(5H)-yl)(1-fluorocyclohexyl)methanone]	0.381
CC1(C)C(C(=O)N2C[C@@H]3C[C@H]2c2ccccc2O3)C1(C)C [Compound 1-15, [(2S,5S)-2,3-dihydro-2,5-methano-1,4-benzoxazepin-4(5H)-yl](2,2,3,3-tetramethylcyclopropyl) methanone]	0.981
O=C(N1C[C@@H]2C[C@H]1c1ccccc1O2)C1(F)CCCC1 [Compound 1-19, [(2S,5S)-2,3-dihydro-2,5-methano-1,4-benzoxazepin-4(5H)-yl](1-fluorocyclopentyl)methanone]	0.499
CC(C)(C)CC(=O)N1C[C@@H]2C[C@H]1c1ccccc1O2 [Compound 1-21, 1-[(2S,5S)-2,3-dihydro-2,5-methano-1,4-benzoxazepin-4(5H)-yl]-3,3-dimethylbutan-1-one]	0.888

Compounds with a lower IC50, results first:

IC50 [µM]	Structure (SMILES)
0.062	CC1(C(=O)N2C[C@@H]3C[C@H]2c2ccccc2O3)CC1(Cl)Cl (mixture of isomers) [Compound 1-20, [(R and S)-2,2-dichloro-1-methylcyclopropyl]-[(2S,5S)-2,3-dihydro-2,5-methano-1,4-benzoxazepin-4(5H)-yl]methanone]
0.22	O=C(C1CCCCC12CC2)N1C[C@@H]2C[C@H]1c1ccccc1O2 (mixture of isomers) [Compound 1-35, [(2S,5S)-2,3-dihydro-2,5-methano-1,4-benzoxazepin-4(5H)-yl]-[(R and S)-spiro[2.5]octan-4-yl]methanone]
0.267	O=C(N1C[C@H]2Cc3ccccc3[C@@H]1C2)C12CCC(C(F)(F)F)(CC1)C2 (single isomer, unassigned) [Compound 3-4]
0.048	CC(C)(C)C(=O)N1C[C@@H]2C[C@H]1c1ccccc1O2 [Compound 1-1, 1-((2S,5S)-2,3-dihydro-2,5-methanobenzo[f][1,4]oxaze-pin-4(5H)-yl)-2,2-dimethylpropan-1-one]
0.061	CC(C)(C(=O)N1C[C@@H]2C[C@H]1c1ccccc1O2)C(F)F [Compound 1-2, 1-((2S,5S)-2,3-dihydro-2,5-methanobenzo[f][1,4]oxaze-pin-4(5H)-yl)-3,3-difluoro-2,2-dimethylpropan-1-one]
0.097	CC1(C(=O)N2C[C@@H]3C[C@H]2c2ccccc2O3)CCC1 [Compound 1-3, ((2S,5S)-2,3-dihydro-2,5-methanobenzo[f][1,4]oxaze-pin-4(5H)-yl)(1-methylcyclobutyl)methanone]
0.033	O=C(N1C[C@@H]2C[C@H]1c1ccccc1O2)C12CCC(CC1)C2 [Compound 1-4, bicyclo[2.2.1]heptan-1-yl((2S,5S)-2,3-dihydro-2,5-methanobenzo[f][1,4]oxaze-pin-4(5H)-yl)methanone]
0.042	CC1(C(=O)N2C[C@@H]3C[C@H]2c2ccccc2O3)CCCCC1 [Compound 1-5, ((2S,5S)-2,3-dihydro-2,5-methanobenzo[f][1,4]oxaze-pin-4(5H)-yl)(1-methylcyclohexyl)methanone]
0.043	CC1(C(=O)N2C[C@@H]3C[C@H]2c2ccccc2O3)CCCC1 [Compound 1-6, ((2S,5S)-2,3-dihydro-2,5-methanobenzo[f][1,4]oxaze-pin-4(5H)-yl)(1-methylcyclopentyl) methanone]
0.217	CC(C)(COC(F)(F)F)C(=O)N1C[C@@H]2C[C@H]1c1ccccc1O2 [Compound 1-7, 1-((2S,5S)-2,3-dihydro-2,5-methanobenzo[f][1,4]oxaze-pin-4(5H)-yl)-2,2-dimethyl-3-(trifluoromethoxy)propan-1-one]
0.138	O=C(N1C[C@@H]2C[C@H]1c1ccccc1O2)C12CCCC(C1)C2 [Compound 1-10, bicyclo[3.1.1]heptan-1-yl((2S,5S)-2,3-dihydro-2,5-methanobenzo[f][1,4]oxaze-pin-4(5H)-yl)methanone]
0.244	CC(C)(C(=O)N1C[C@@H]2C[C@H]1c1ccccc1O2)C1CCC1 [Compound 1-11, 2-cyclobutyl-1-[(2S,5S)-2,3-dihydro-2,5-methano-1,4-benzoxazepin-4(5H)-yl]-2-methylpropan-1-one]
0.086	CC(F)(F)C1(C(=O)N2C[C@@H]3C[C@H]2c2ccccc2O3)CCC1 [Compound 1-12, [1-(1,1-difluoroethyl)cyclobutyl] [(2S,5S)-2,3-dihydro-2,5-methano-1,4-benzoxazepin-4(5H)-yl]methanone]
0.104	O=C(N1C[C@@H]2C[C@H]1c1ccccc1O2)C1(C(F)F)CCCC1 [Compound 1-13, [1-(difluoromethyl)cyclopentyl] [(2S,5S)-2,3-dihydro-2,5-methano-1,4-benzoxazepin-4(5H)-yl]methanone]
0.096	O=C(N1C[C@@H]2C[C@H]1c1ccccc1O2)C1(C(F)(F)F)CCC1 [Compound 1-16, [(2S,5S)-2,3-dihydro-2,5-methano-1,4-benzoxazepin-4(5H)-yl][1-(trifluoromethyl)cyclobutyl] methanone]
0.047	CC(F)(F)C(C)(C)C(=O)N1C[C@@H]2C[C@H]1c1ccccc1O2 [Compound 1-17, 1-[(2S,5S)-2,3-dihydro-2,5-methano-1,4-benzoxazepin-4(5H)-yl]-3,3-difluoro-2,2-dimethylbutan-1-one]
0.073	CC(C)(C(=O)N1C[C@@H]2C[C@H]1c1ccccc1O2)C(F)(F)F [Compound 1-18, 1-[(2S,5S)-2,3-dihydro-2,5-methano-1,4-benzoxazepin-4(5H)-yl]-3,3,3-trifluoro-2,2-dimethylpropan-1-one]
0.021	CCC(C)(C)C(=O)N1C[C@@H]2C[C@H]1c1ccccc1O2 [Compound 1-22, 1-[(2S,5S)-2,3-dihydro-2,5-methano-1,4-benzoxazepin-4(5H)-yl]-2,2-dimethylbutan-1-one]
0.234	O=C(N1C[C@@H]2C[C@H]1c1ccccc1O2)C12CC3CC(CC(C3)C1)C2 [Compound 1-23, [(2S,5S)-2,3-dihydro-2,5-methano-1,4-benzoxazepin-4(5H)-yl][(3R,5R,7R)-tricyclo[3.3.1.1~3,7~]decan-1-yl]methanone]
